Legend:
[1] = molecular target: CDK2/Cyclin E complex (Homo sapiens, UniProt P24941); experiment: In vitro kinase assay, CDK2/Cyclin E complex; type: biochemical; conditions: recombinant protein (Upstate); read-out: CDK2/cyclinE IC50
Protocol: (§1) Inhibitory activity against Aurora A, CDK1/Cyclin B complex, CDK2/Cyclin E complex and CDK3/Cyclin E complex were measured by in vitro kinase assay using recombinant proteins.

[2] = molecular target: T1, CDK3/Cyclin E complex (Homo sapiens, UniProt Q00526); experiment: In vitro kinase assay, CDK3/Cyclin E complex; type: biochemical; conditions: recombinant protein (Upstate); read-out: CDK3/cyclinE IC50
T1 construct: purchased Upstate Inc. 14-487
T1 sequence (Q00526 whole entry): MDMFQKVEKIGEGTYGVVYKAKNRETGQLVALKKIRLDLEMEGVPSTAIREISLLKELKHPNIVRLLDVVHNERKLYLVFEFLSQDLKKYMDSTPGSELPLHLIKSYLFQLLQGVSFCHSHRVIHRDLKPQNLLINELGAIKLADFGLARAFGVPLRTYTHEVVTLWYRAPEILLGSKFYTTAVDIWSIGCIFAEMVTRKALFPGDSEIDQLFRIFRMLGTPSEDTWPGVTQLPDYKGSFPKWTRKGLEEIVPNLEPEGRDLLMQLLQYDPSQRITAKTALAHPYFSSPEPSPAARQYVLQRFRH
T1 sequence (P24864 whole entry partner): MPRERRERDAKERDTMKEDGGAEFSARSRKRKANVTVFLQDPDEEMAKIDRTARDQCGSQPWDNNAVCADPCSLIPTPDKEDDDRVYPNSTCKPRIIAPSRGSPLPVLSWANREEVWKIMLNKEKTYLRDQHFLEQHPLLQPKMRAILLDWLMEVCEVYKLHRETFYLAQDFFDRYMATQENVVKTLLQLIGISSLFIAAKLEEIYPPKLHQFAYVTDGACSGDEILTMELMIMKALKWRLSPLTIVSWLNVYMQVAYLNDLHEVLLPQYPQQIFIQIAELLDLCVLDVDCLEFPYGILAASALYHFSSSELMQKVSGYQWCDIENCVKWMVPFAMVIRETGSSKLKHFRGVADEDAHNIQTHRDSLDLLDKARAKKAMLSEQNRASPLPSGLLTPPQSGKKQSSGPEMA
Protocol: as §1

[3] = tested on: prostate cancer cell line DU 145; experiment: Cell proliferation inhibitory activity, DU 145; type: cell-based, human; conditions: Homo sapiens, 96 h, cells counted 4 days later with Cell Counting Kit-8
How it was run: (§2)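 Cells were exposed to serial concentrations of test substance at 37° C in 5% CO2 for 4 days, then counted with Cell Counting Kit-8. IC50 was derived with substance-free wells set as 0% inhibition and wells lacking both substance and cells as 100%.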

[4] = tested on: pancreatic cancer cell line MIAPaCa-2; experiment: Cell proliferation inhibitory activity, MIAPaCa-2; type: cell-based; conditions: Homo sapiens, MIA PaCa-2, 96 h; cells counted 4 days later, Cell Counting Kit-8
Protocol: (§3) Evaluations were carried out using colon carcinoma cell line SW620 (Cat. No. CCL-227), lung carcinoma cell line NCI-H460 (Cat. No. HTB-177), prostate cancer cell line DU 145 (Cat. No. HTB-81), breast cancer cell line MDA-MB-231 (Cat. No. HTB26) and leukemia cell line KG-1a (Cat. No. CCL-246.1) purchased from ATCC, pancreatic cancer cell line MIAPaCa-2 (Cat. No. CRL-1420) purchased from Dainippon Pharmaceutical, and ovarian cancer cell line IGROV1 received from the Netherland Cancer Institute. The cells were cultured under the conditions recommended by the supplier for each cell line, or with respect to IGROV1, according to the method described in Cancer Res. 59: 4559-4563, 1999. Cells suspended in media were added to solutions containing the test substances at various concentrations followed by culturing in a 5% CO2 incubator at 37° C. The numbers of cells were counted 4 days later with the Cell Counting Kit-8. IC50 values were calculated by assigning measured values in the case of not containing a test substance to an inhibition of 0%, and assigning measured values in the case of not containing a test substance or cells to an inhibition of 100%.

[5] = molecular target: T2, Aurora A (Homo sapiens, UniProt O14965); experiment: In vitro kinase assay, Aurora A; type: biochemical; conditions: recombinant protein (Upstate)
T2 construct: purchased Upstate Inc. 14-511
T2 sequence (O14965 1-403): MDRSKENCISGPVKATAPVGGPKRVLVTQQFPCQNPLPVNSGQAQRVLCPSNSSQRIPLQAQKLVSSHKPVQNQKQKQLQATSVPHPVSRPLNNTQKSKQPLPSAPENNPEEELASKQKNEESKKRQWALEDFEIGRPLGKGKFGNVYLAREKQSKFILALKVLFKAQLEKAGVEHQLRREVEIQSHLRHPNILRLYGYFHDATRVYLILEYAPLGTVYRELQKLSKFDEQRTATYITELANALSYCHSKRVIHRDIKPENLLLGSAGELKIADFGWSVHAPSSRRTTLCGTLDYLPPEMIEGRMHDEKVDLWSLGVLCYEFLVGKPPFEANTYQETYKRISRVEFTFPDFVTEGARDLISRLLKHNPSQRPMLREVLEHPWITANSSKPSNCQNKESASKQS
How it was run: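 Recombinant human enzymes assayed per supplier protocol. IC50 derived with compound-free wells set as 0% inhibition and compound- and enzyme-free wells as 100% inhibition.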

[6] = tested on: colon carcinoma cell line SW620; experiment: Cell proliferation inhibitory activity, SW620; type: cell-based, human; conditions: Homo sapiens, SW-620, 96 h, cells counted 4 days later with Cell Counting Kit-8
How it was run: as §2

[7] = tested on: breast cancer cell line MDA-MB-231; experiment: Cell proliferation inhibitory activity, MDA-MB-231; type: cell-based; conditions: Homo sapiens, 96 h, cells counted 4 days later with Cell Counting Kit-8
Protocol: as §3

[8] = tested on: ovarian cancer cell line IGROV1; experiment: Cell proliferation inhibitory activity, IGROV1; type: cell-based; conditions: Homo sapiens, IGROV-1, 96 h, cells counted 4 days later with Cell Counting Kit-8
Protocol: as §3

[9] = molecular target: T3, CDK1/Cyclin B complex (Homo sapiens, UniProt P06493); experiment: In vitro kinase assay, CDK1/Cyclin B complex; type: biochemical; conditions: recombinant protein (Upstate)
T3 construct: purchased Upstate Inc. 14-450
T3 sequence (P06493 whole entry): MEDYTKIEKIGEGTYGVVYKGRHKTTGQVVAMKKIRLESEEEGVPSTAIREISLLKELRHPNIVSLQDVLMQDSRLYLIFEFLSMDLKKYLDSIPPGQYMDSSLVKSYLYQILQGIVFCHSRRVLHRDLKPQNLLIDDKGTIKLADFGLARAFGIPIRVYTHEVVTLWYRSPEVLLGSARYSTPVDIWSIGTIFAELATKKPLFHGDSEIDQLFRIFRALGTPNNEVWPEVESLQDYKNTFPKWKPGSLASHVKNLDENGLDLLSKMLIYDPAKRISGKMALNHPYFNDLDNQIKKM
T3 sequence (P14635 whole entry partner): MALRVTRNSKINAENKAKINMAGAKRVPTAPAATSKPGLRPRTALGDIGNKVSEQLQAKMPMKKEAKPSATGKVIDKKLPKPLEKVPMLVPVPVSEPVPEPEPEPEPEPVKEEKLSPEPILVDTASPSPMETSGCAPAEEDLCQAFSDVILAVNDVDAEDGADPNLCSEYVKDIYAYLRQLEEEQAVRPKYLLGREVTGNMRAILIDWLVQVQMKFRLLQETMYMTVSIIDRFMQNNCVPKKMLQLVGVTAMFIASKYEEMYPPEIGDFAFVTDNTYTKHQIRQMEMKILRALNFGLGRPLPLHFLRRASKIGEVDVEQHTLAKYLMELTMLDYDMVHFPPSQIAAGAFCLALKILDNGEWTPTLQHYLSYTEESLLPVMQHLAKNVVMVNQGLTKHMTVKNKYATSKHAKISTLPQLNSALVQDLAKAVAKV
Protocol: Inhibitory activity against Aurora A, CDK1/Cyclin B complex, CDK2/Cyclin E complex and CDK3/Cyclin E complex were measured by in vitro kinase assay using recombinant proteins. The assays were carried out by using recombinant proteins (Upstate Inc.) for Aurora A, CDK1/Cyclin B complex, CDK2/Cyclin E complex and CDK3/Cyclin E complex (respective cat. nos. 14-511, 14-450, 14-448 and 14-487), in accordance with the procedure described in the product instructions thereof. The 50% inhibitory concentrations (IC50 values) were calculated by assigning measured values in the case of not containing a test compound to an inhibition of 0%, and assigning measured values in the case of not containing a test compound and enzyme to an inhibition of 100%.

[10] = tested on: leukemia cell line KG-1a; experiment: Cell proliferation inhibitory activity, KG-1a; type: cell-based; conditions: Homo sapiens, 96 h, cells counted 4 days later with Cell Counting Kit-8
How it was run: as §2

[11] = tested on: lung carcinoma cell line NCI-H460; experiment: Cell proliferation inhibitory activity, NCI-H460; type: cell-based; conditions: Homo sapiens, 96 h, cells counted 4 days later with Cell Counting Kit-8
Protocol: as §3

[12] = molecular target: T4, recombinant human βARK1 (Homo sapiens, UniProt P25098); experiment: Inhibitory activity against βARK1 (33P phosphorylation of synthetic peptide); type: biochemical; conditions: recombinant human βARK1, 60 minutes at room temperature
T4 construct: made in house; host or cells: Sf-9 insect cells (baculovirus, pBacPAK8)
T4 sequence (P25098 1-689): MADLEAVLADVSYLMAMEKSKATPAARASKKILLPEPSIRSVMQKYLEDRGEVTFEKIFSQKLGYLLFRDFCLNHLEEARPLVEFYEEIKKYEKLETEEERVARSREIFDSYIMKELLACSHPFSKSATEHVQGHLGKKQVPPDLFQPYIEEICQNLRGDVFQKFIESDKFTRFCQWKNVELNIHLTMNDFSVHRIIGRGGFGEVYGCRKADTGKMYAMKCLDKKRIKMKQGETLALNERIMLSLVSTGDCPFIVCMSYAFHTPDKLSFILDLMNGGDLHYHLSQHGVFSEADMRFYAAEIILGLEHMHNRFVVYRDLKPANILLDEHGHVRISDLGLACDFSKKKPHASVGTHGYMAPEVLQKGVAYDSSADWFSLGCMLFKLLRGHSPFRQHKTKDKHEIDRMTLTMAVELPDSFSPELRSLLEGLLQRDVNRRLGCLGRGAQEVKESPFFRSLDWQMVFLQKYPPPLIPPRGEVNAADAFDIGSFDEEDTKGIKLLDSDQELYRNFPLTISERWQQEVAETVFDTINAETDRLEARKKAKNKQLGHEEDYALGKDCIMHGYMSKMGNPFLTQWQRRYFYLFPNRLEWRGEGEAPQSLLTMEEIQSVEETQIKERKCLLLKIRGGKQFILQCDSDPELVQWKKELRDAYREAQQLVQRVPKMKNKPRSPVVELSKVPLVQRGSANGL
Protocol: Human βARK1 was amplified by PCR based on the base sequence of human βARK1 mRNA registered in GenBank (Accession No. M80776) using a human leukocyte cDNA library (Gibco BRL Cat. No. 10421-022) as a template. The amplified cDNA fragment was inserted into a pBacPAK8 vector (Clontech) to construct a plasmid.
Recombinant human βARK1 was expressed using the BacPAK Baculovirus Expression System (Clontech, Cat. No. K1601-1). 1×10^6 Sf-9 cells were adhered to a 35 mm dish in 2.5 mL of TMN-FH Insect Medium containing 10 vol % FBS (Pharminogen, Cat. No. PM-21227M) and cultured overnight at 27° C. On the following day, the medium was removed and 500 ng of the above plasmid, BacPAK6 viral DNA cleaved with Bsu36I (5 μL) and 1.5 mL of the same medium mixed with 4 μL of Bacfectin were added followed by culturing for 5 hours, further adding 1.5 mL of medium and subsequently culturing for 5 days. […] The culture supernatant after 5 days was recovered and a plaque assay was carried out to isolate single plaques. These were then infected into Sf-9 cells and the resulting culture supernatant was designated as Passage 1 (1−3×10^11 pfu/mL). Passage 1 was added to 3×10^7 Sf-9 cells to a multiplicity of infection (MOI) of 0.1 (pfu/cell), suspension culturing was carried out for 5 days using a spinner flask, and the resulting culture supernatant was designated as Passage 2 (4×10^10 pfu/mL) and used as a viral liquid for large-volume expression.
Sf-9 cells at 3×10^9 cells/200 mL were infected by adding Passage 2 to an MOI of 100 followed by addition of medium to bring to a liquid volume of 2 L and further culturing for 3 days. After recovering the cells by centrifugation and washing three times with PBS, the cells were suspended in 100 mL of Lysis Buffer (20 mmol/L HEPES-HCl (pH 7.2), 5 mmol/L EDTA, 3 mmol/L phenylmethylsulfonyl fluoride (PMSF)). After lysing the cells by ultrasonic treatment at low temperature, the supernatant was recovered by centrifuging (45,000×g, 15 minutes) (sup1). NaCl was added to the resulting supernatant to a final concentration of 250 mmol/L followed by ultracentrifugation (300,000×g, 60 minutes) and using the subsequent supernatant as a crude cell extract (sup2).
Purification was carried out with reference to the literature (Benovic, J. L., Methods Enzymol. 1991; 200: 351-362; Kim, C. M. et al., Receptor 1993; 3: 39-55; Sohlemann, P. et al., FEBS Letters 1993; 324: 59-62). The crude cell extract was accurately brought to a volume of 400 mL with Buffer C (20 mmol/L HEPES-HCl (pH 7.2), 5 mmol/L EDTA, 0.02 vol % Triton X-100) followed by loading onto a 50 mL SP-Sepharose FF (Amersham Pharmacia Biotech) column equilibrated with Buffer C. […] ETA was carried out on each fraction using anti-GRK2 antibody (Santa-Cruz Cat. No. SC-562) and the positive fractions were collected (GRK2=βARK1). This was then diluted three-fold with Buffer C and loaded on a 5 mL HiTrap Heparin column (Amersham Pharmacia Biotech) column equilibrated with Buffer C. After washing the column with Wash Buffer (100 mmol/L NaCl, Buffer C), the column was eluted with an NaCl concentration gradient (100 to 600 mmol/L NaCl for 100 minutes, flow rate: 1 mL/min). The positive fractions as determined by ETA were collected and stored in a freezer at −80° C.
A synthetic peptide having an amino acid sequence of biotinated-[…] was used in accordance with a previous report (Chen, C. Y. et al., J. Biol. Chem. 1993; 268: 7825-7831). This synthetic peptide can also be synthesized with reference to known synthesis methods (for example, Chen, C. Y. et al., J. Biol. Chem. 1993; 268: 7825-7831, Biochemistry 1991; 30: 5118-5125). 2 μl of a DMSO solution in which the test compound was diluted to as to be […] the final concentration was dispensed into a 96-well plate (round bottom) (Falcon 351190) (final concentration: 4 vol % DMSO). […]

Compound	IC50 [1] [nM]	IC50 [2] [nM]	IC50 [3] [nM]	IC50 [4] [µM]	IC50 [5] [nM]	IC50 [6] [nM]	IC50 [7] [nM]	IC50 [8] [µM]	IC50 [9] [nM]	IC50 [10] [nM]	IC50 [11] [nM]	IC50 [12] [nM]
CC(Nc1cccc(O)c1)C(=O)Nc1nc2ccc3[nH]ncc3c2s1 (stereo not shown) [compound 23]	30	47	1600	3.5	47	500	1600	1.3	150	< 100	1400	
CC(Nc1ccc(Cl)cc1)C(=O)Nc1nc2ccc3[nH]ncc3c2s1 (stereo not shown) [compound 24]	50	75	3200	4.8		900	3800	4.6		< 100		8
CCC(=O)Nc1cc(NC(C)(C)C(=O)Nc2nc3c(C(F)(F)F)cc4[nH]ncc4c3s2)ccc1F [compound 76]	294	124	1800	4.9		900	4600	2.7		300	1500	9.3
CC(C)(Nc1ccc(Cl)c(C(=O)NOCc2ccccc2)c1)C(=O)Nc1nc2c(C(F)(F)F)cc3[nH]ncc3c2s1 [compound 98]		128	4400	4	65	500	2600				1800	
CC(C)(Nc1ccc(Cl)c(OCC(O)CO)c1)C(=O)Nc1nc2c(C(F)(F)F)cc3[nH]ncc3c2s1 (stereo not shown) [compound 99]	20	8.7	1700	4.5	142	700	3000	4.4	140	300	4100	
Cc1cc2[nH]ncc2c2sc(NC(=O)C3(Nc4ccc(Cl)cc4)CC3)nc12 [compound 127]	128	185	3000			700	4300	4.9		< 100	3100	6.2
CNC(=O)c1cc(NC(C)(C)C(=O)Nc2nc3c(C(F)(F)F)cc4[nH]ncc4c3s2)ccc1F [compound 137]	40	12	400	3.1		200	1900	3	39	< 100	400	
CC(C)(Nc1ccc(F)c(C(N)=O)c1)C(=O)Nc1nc2c(C(F)(F)F)cc3[nH]ncc3c2s1 [compound 138]	37	12	2300	4.3	263	2100		4.5	53		1600	

From patent publication US7879887B2, “α-amino acid derivatives and medicaments containing the same as an active ingredient” (Nissan Chemical Industries, Ltd., priority 2006, dated 2011)
